Reference: US6465168B1, “Methods and apparatus for the inactivation of viruses” (priority 1992, dated 2002)
Where two headings read alike, the source gives them in different places. Marks after values point to notes of the source that are not given here.

Tests used:
[1] = system: murine-C retrovirus; assay: Critical fluid viral inactivation of murine-C retrovirus in serum, polybrene enhanced titer on NIH3T3 cells; assay type: cell-based
Text: (§1) In its normal operating mode, valves PV-4 and PV-5 are opened and an aliquot of test solution is aseptically introduced through the 3-way valve PV-4 using a sterile syringe and a presterilized loading tube. The 3-way valve PV-4 is then turned so that the critical fluid recycle line communicates with the soaking chamber, and the vent valve PV-5 is closed. PV-1 is then opened, supplying the solvent to the compressor P-1. The compressor is turned on and immediately thereafter valves PV-2 and PV-3 are opened, introducing the critical fluid solvent into the high pressure circulation loop. When operating pressure is attained, the compressor is turned off and valve PV-3 is closed.
(§2) After system stabilization, the circulation pump P-2 is turned on and its speed adjusted, typically to 75% of maximum speed or 6,750 rpm. P-2 draws both the proteinaceous product from the bottom of the soaking chamber and the critical fluid phase from the top of the same unit. The mixture is then pumped counter-clockwise, mixed by static in-line mixer and returned to the soaking chamber. After mixing for a defined residence time, P-2 is turned off. The decompression valve PV-7 is then fully opened to depressurize the soaking chamber and the high pressure circulation loop. The rate of decompression was approximately 500 psig per second when PV-7 is a ¼″ ball valve. By using a back-pressure regulator instead of a ¼″ ball valve as the decompression valve PV-7, the rate of decompression can be controlled. In some experiments, the rate of decompression was controlled to approximately 2,000 psig per minute.
(§3) In the examples described herein, samples of a recombinant murine C-type retrovirus were prepared as follows. […] Clonal cell lines stably expressing the transfected DNA were derived and maintained as virus-producing stocks. By packaging the RNA produced by the transfected DNA into the defective particles, these cells produce infectious particles that are entirely normal with respect to overall structure, stability, and mode of infection, but containing the plasmid-derived rather that the wild type, genetic material (Mann et al., Ibid).
(§4) Because the LNCX sequences contain the antibiotic resistance gene neo and a suitable promoter, infection of cells with the recombinant retrovirus confers upon the cells resistance to the antibiotic Geneticin (G418). Conferral of Geneticin-resistance onto cells and their progeny was therefore used as the property by which virus titers were determined. Specifically, virus stocks were prepared by culturing the virus-producing cells at high density (50% confluence) in fresh culture medium (Dulebecco's modified Eagle's medium supplemented with 10% iron-supplemented calf serum [Hyclone, Inc., Logan, UT], glutamine [1 mM], penicillin [100 U/ml] and streptomycin [100 μg/ml] for 18 hours at 37 C. in a humidified 5% CO2 atmosphere. Culture medium was harvested and passed through a 0.2 micron filter, divided into aliquots, quick frozen using a dry-ice/ethanol bath and stored at −80° C. Immediately before use, samples were warmed in a 37 C. water bath until just thawed and held on ice. Aliquots of a single virus preparation were used for the examples described below.
(§5) After virus-containing samples were mixed with other materials and treated as described in each of the examples, they were returned to ice, and assayed within 8 hours. Titer tests were performed by seeding 35 mm-style culture dishes with a mouse fibroblast line (NIH3T3 cells) in 3 ml of the culture medium described above at a density of 10,000 cells per well the evening before the assay was to be performed. Virus samples were added to the culture medium over the cells at various dilution from 10^0 (undiluted) to 10^−6.

[2] = system: murine C-type retrovirus; assay type: cell-based; conditions: culture medium; for Titer: control 5,000; for effectiveness in inactivating the retrovirus: supercritical fluid, approximately 3,000 psig and 40° C.
Text: as §1, §2, §3, §4, §5

[3] = runs CFI-28 to CFI-30: 3,000 psig, 41 C., 30 mins, serum
[4] = runs CFI-28 to CFI-30: 3,000 psig, 41 C., 30 mins, serum, polybrene, control 65,000
[5] = run CFI-18: 2,560 psig, 43 C., 30 mins
[6] = run CFI-19: 2,690 psig, 41 C., 5 mins
[7] = runs CFI-33 (Fr-22), CFI-35 (N2): 3,000 psig, 41 C., 60 mins, serum
[8] = runs CFI-33 (Fr-22), CFI-35 (N2): 3,000 psig, 41 C., 60 mins, serum, control 20,000, 5 = detection limit
[9] = run CFI-21: 3,250 psig, 41 C., 30 mins

CCC [C3H8, propane]
- log10 Reduction [1, 3]: 1.4 | Titer [1, 4]: 2,500 cfu/2.3 ml

CCO [ethanol]
impact on the effect of supercritical nitrous oxide ([1]; 2 mole % ethanol cosolvent, approximately 3,000 psig, 40° C., 30 minutes, serum): little or no impact | effect on the titer ([1]; control without critical fluid, 40° C., 2 mole % ethanol in the serum): does not affect the titer

[N-]=[N+]=O [N2O, nitrous oxide]
- log10 Reduction [2, 5]: 2.7 | Titer [2, 5]: 10 cfu/2.3 ml | - log10 Reduction [2, 6]: 2.0 | Titer [2, 6]: 50 cfu/2.3 ml | - log10 Reduction ([2]; run CFI-20: 3,180 psig, 41 C., 121 mins): >3.0 | Titer ([2]; run CFI-20: 3,180 psig, 41 C., 121 mins, 5 = detection limit): <5* cfu/2.3 ml | effectiveness in inactivating the retrovirus [2]: very effective | reduction of virus activity ([1]; 3,000 psig and 40° C., residence time 30 minutes, serum (CFI-27)): 1.4 logs | inactivation of the viral population, within the detection limits of the assay ([1]; 5,000 psig and 40° C., residence time 30 minutes, serum (CFI-34)): inactivated the entire viral population | - log10 Reduction ([1]; run CFI-26: 3,000 psig, 60 C., 30 mins, serum): >4.1 | Titer ([1]; run CFI-26: 3,000 psig, 60 C., 30 mins, serum, polybrene, 40 C. control 65,000, 5 = detection limit): <5* cfu/2.3 ml | - log10 Reduction ([1]; run CFI-27: 3,000 psig, 40 C., 30 mins, serum): 1.4 | Titer ([1]; run CFI-27: 3,000 psig, 40 C., 30 mins, serum, polybrene, control 65,000): 3,000 cfu/2.3 ml | - log10 Reduction ([1]; run CFI-34: 5,000 psig, 41 C., 30 mins, serum): >3.6 | Titer ([1]; run CFI-34: 5,000 psig, 41 C., 30 mins, serum, control 20,000, 5 = detection limit): <5* cfu/2.0 ml | reduction of effectiveness by the presence of protein ([1]; serum (CFI-27) compared with culture medium (CFI-18)): one to two orders of magnitude

FC(F)Cl [Fr-22, chlorodifluoromethane]
reduction of viral activity ([1]; after 30 minutes of contacting the serum, approximately 3,000 psig and 40° C.): ~3.2 log orders of magnitude | time to eliminate viral activity, within the detection limits of the assay ([1]; approximately 3,000 psig and 40° C., serum): within five minutes | - log10 Reduction ([1]; run CFI-31: 3,000 psig, 40 C., 5 mins, serum): >3.6 | Titer ([1]; run CFI-31: 3,000 psig, 40 C., 5 mins, serum, control 20,000, 5 = detection limit): <5* cfu/2.0 ml | - log10 Reduction ([1]; run CFI-32: 3,000 psig, 40 C., 15 mins, serum): 3.6 | Titer ([1]; run CFI-32: 3,000 psig, 40 C., 15 mins, serum, control 20,000): 5 cfu/2.0 ml | - log10 Reduction [1, 3]: 3.2 | Titer [1, 4]: 40 cfu/2.3 ml | - log10 Reduction [1, 7]: >3.6 | Titer [1, 8]: <5* cfu/2.0 ml

N#N [N2, nitrogen]
- log10 Reduction [2, 9]: 0.2 | Titer [2, 9]: 3,000 cfu/2.3 ml | effectiveness in inactivating the retrovirus [2]: relatively ineffective | - log10 Reduction [1, 7]: 0.7 | Titer [1, 8]: 3,750 cfu/2.0 ml
